SMILES strings stand for the structures. Numbers after ± are expanded uncertainties.

These results are taken from the NIST ThermoML archive (doi:10.1016/j.jct.2006.10.006).

The nature of data set [1]: Molar enthalpy of transition or fusion. Particulars: Crystal; DSC.
The conditions of data set [2]: Crystal 1; DTA.
Data set [3] is described as follows: molar enthalpy of vaporization or sublimation. Conditions: 298.15 K; Crystal; Static calorimetry.

Consider `CCOC(=S)NC(=O)c1cccs1` [carbamothioic acid, N-(2-thienylcarbonyl)-, O-ethyl ester], for which the “Molar enthalpy of transition or fusion” value in data set [1] is 21.9 ± 0.98 kJ/mol. For the same compound, the Triple point temperature in data set [2] is recorded as 345.9 ± 0.5 K. In addition, the molar enthalpy in data set [3] turned out to be 143 ± 6 kJ/mol.
